US20020068838A1, “AROMATIC AMIDES, THEIR PREPARATION PROCESS AND THEIR USE AS PESTICIDES” (priority 1997, published 2002)

Columns and labels:
Type in all cases: in vivo
Spodoptera littoralis = assay: Study on Spodoptera littoralis (haricot leaf dip test); details: starting from a dose of 300 ppm, after seven days, 25 C
Method: The product was dissolved at the desired concentration in an acetone-water mixture (50-50). Haricot leaves (Phaseolus vulgaris, var. […]) were immersed for five seconds in the solution, then left to dry in a Petri dish for one hour. Ten larvae of Spodoptera littoralis were then added to each dish. These were kept at a temperature of 25 C., with a photoperiod of twelve hours. After seven days, the mortality of the larvae was checked and the foliar surface consumed was evaluated.

Heliothis virescens = assay: Study on Heliothis virescens (artificial medium surface treatment); details: starting from a dose of 300 ppm; neonate larva; after seven days; 25 C
Method: The product was dissolved at the desired concentration in an acetone-water mixture (50-50). 50 μl of solution were deposited on the surface of a small well containing approximately 2 grams of plant-based artificial medium. One neonate larva of Heliothis virescens was then introduced into each well, which was sealed with a sheet of cellophane. The tests were kept at a temperature of 25 C., with a photoperiod of twelve hours. The mortality of the larvae was checked after seven days.

[1] = test system: Leptinotarsa decemlineata; assay: Study on Leptinotarsa decemlineata (aubergine foliar disk dip test); details: starting from a dose of 300 ppm; larvae (3rd stage); after four days; 25 C
Method: The product was dissolved at the desired concentration in an acetone-water mixture (50-50). Foliar disks of aubergine were immersed in the solution, then left to dry for one hour. Ten larvae (3rd stage) were added into a Petri dish each containing a foliar disk. These were kept at a temperature of 25 C. After four days, the mortality of the insects was checked.

Phaedon cochleariae = assay: Study on Phaedon cochleariae (foliar disk dip test, Chinese cabbage); details: starting from a dose of 300 ppm; adults; after seven days; 25 C
Method: The product was dissolved at the desired concentration in an acetone-water mixture (50-50). Foliar disks of Chinese cabbage (Brassica pekinensis) were immersed for five seconds in the solution, then left to dry for one hour. Ten adults (a mixture of males and females) were added into a Petri dish containing a foliar disk each. These were kept at a temperature of 25 C., with a photoperiod of twelve hours. After seven days, the mortality of the insects was checked and the foliar surface consumed was evaluated.

| SMILES | activity (mortality of the larvae and foliar surface consumed) (Spodoptera littoralis) | activity (mortality of the larvae) (Heliothis virescens) | activity (mortality of the insects) [1] | activity (mortality of the insects and foliar surface consumed) (Phaedon cochleariae) |
| --- | --- | --- | --- | --- |
| Cc1ccccc1NC(=O)c1ccc(CC(F)Cc2ccc(Cl)c(Cl)c2)cc1 (stereo not drawn) [Example 1, 4-[3-(3,4-dichlorophenyl)-2-fluoropropyl]-N-(2-methylphenyl)-benzamide] | good activity | good activity | – | – |
| CC(=CCc1ccc(C(=O)Nc2ccccc2C)cc1)c1ccc(Cl)c(Cl)c1 [Example 5, 4-[3-(3,4-dichlorophenyl)-2-butenyl]-N-(2-methylphenyl)-benzamide] | good activity | good activity | – | – |
| Cc1ccccc1NC(=O)c1ccc(CC(F)=Cc2ccc(Cl)c(Cl)c2)cc1 [Example 2] | good activity | good activity | – | – |
| Cc1ccccc1NC(=O)c1ccc(CC=C(Cl)c2ccc(Cl)c(Cl)c2)cc1 [Example 6, 4-[3-chloro-3-(3,4-dichlorophenyl)-2-propenyl]-N-(2-methylphenyl)-benzamide] | good activity | good activity | very interesting activity | good activity |
| Cc1ccccc1NC(=O)c1ccc(CC=Cc2ccc(Cl)c(Cl)c2)cc1 [Example 7, 4-[3-(3,4-dichlorophenyl)-2-propenyl]-N-(2-methylphenyl)-benzamide] | good activity | good activity | – | – |
